For three compounds, Ki results are on record in patent US20100120769A1, “CYCLOHEXYL PIPERAZINYL METHANONE DERIVATIVES” (priority 2006, published 2010).

This experiment addresses T1, histamine 3 receptor (H3R) (Homo sapiens, UniProt Q9Y5N1).
T1 construct: expressed in transfected cells; host or cells: CHO cells (HR3-CHO)
Briefly: Binding assay with 3H-(R)α-methylhistamine (competition binding, HR3-CHO membranes). As to conditions: membrane of the human HR3-CHO cell line, 3H(R)α-Methylhistamine 1 nM; Ki calculated from IC50 by Cheng-Prusoff. The method, then: Binding Assay with ^3H-(R)α-methylhistamine
Saturation binding experiments were performed using HR3-CHO membranes prepared as described in Takahashi, K, Tokita, S., Kotani, H. (2003) J. Pharmacol. Exp. Therapeutics 307, 213-218.
An appropriate amount of membrane (60 to 80 μg protein/well) was incubated with increasing concentrations of ^3H(R)α-Methylhistamine di-hydrochloride (0.10 to 10 nM). Non specific binding was determined using a 200 fold excess of cold (R)α-Methylhistamine dihydrobromide (500 nM final concentration). The incubation was carried out at room temperature (in deep-well plates shaking for three hours). The final volume in each well was 250 μl. The incubation was followed by rapid filtration on GF/B filters (pre-soaked with 100 μl of 0.5% PEI in Tris 50 mM shaking at 200 rpm for two hours). The filtration was made using a cell-harvester and the filter plates were then washed five times with ice cold washing buffer containing 0.5 M NaCl. After harvesting, the plates were dried at 55° C. for 60 min, then we added scintillation fluid (Microscint 40, 40 microl in each well) and the amount of radioactivity on the filter was determined in Packard top-counter after shaking the plates for two hours at 200 rpm at room temperature.
Binding Buffer: 50 mM Tris-HCl pH 7.4 and 5 mM MgCl2x6H2O pH 7.4. Washing Buffer: 50 mM Tris-HCl pH 7.4 and 5 mM MgCl2x6H2O and 0.5 M NaCl pH 7.4.
Indirect measurement of affinity of H3R inverse agonists: twelve increasing concentrations (ranging from 10 μM to 0.3 nM) of the selected compounds were always tested in competition binding experiments using membrane of the human HR3-CHO cell line. An appropriate amount of protein, e.g. approximately 500 cpm binding of RAMH at Kd, were incubated for 1 hour at room temperature in 250 μl final volume in 96-well plates in presence of ^3H(R)α-Methylhistamine (1 nM final concentration=Kd). […]
All compounds were tested at a single concentration in duplicates. […] Ki's were calculated from IC50 based on Cheng-Prusoff equation (Cheng, Y, Prusoff, W H (1973) Biochem Pharmacol 22, 3099-3108).

T1 sequence (Q9Y5N1 whole entry): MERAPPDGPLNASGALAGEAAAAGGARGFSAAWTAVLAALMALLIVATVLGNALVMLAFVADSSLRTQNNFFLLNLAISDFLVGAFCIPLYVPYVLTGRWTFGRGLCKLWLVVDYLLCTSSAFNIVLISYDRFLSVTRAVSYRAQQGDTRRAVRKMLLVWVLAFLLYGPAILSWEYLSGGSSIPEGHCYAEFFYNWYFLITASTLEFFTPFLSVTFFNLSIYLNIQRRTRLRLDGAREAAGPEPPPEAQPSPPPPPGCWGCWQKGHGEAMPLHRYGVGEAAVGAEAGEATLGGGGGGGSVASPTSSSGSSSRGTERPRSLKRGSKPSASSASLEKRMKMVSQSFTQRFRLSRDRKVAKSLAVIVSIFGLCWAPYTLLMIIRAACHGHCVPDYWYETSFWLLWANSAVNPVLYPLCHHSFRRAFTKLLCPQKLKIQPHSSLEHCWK

One may read the Ki as the dissociation constant of the complex between target and ligand, obtained from inhibition or displacement. For `Cc1ccc(NC2CCC(C(=O)N3CCN(C(C)C)CC3)CC2)cc1` (stereo not drawn) [Example 1, (4-Isopropyl-piperazin-1-yl)-(4-p-tolylamino-cyclohexyl)-methanone], the Ki was 52.8 nM.
As to `CC(C)N1CCN(C(=O)[C@H]2CC[C@H](NC(=O)c3ccc(Cl)cc3Cl)CC2)CC1` [Example 13, 2,4-dichloro-N-[trans-4-(4-isopropyl-piperazine-1-carbonyl)-cyclohexyl]-benzamide], the Ki is 88.1 nM.
As for `CC(C)N1CCN(C(=O)[C@H]2CC[C@H](NC(=O)N(C)c3cccc(F)c3)CC2)CC1` [Example 32, 1-(3-fluoro-phenyl)-3-[trans-4-(4-isopropyl-piperazine-1-carbonyl)-cyclohexyl]-1-methyl-urea], the inhibition constant (Ki) was 38.4 nM.
